Source: US4048328A, “Alkyl derivatives of 4,5-dehydro PGF1” (American Home Products Corporation, priority 1976, dated 1977)
Read-outs that look alike come from different tables or passages of the source.

Experiments:
[1] = test system: secretion of gastric acid; assay: inhibition of gastric acid secretion in rats (Shay et al.); assay type: in vivo; settings: po; orally, rat
Experimental: For example, when trans,cis-7-[2-(3-hydroxy-4,4-dimethyl-1-octenyl)-5-oxocyclopentyl]-5-heptanoic acid (Example 68) is given orally to the rat according to the aforementioned method, an ED50 of about 1.0 mg/kg is obtained for the compound.

pregnancy [2] = settings: rhesus monkey; cited from earlier work
pregnancy [3] = settings: human; cited from earlier work
mated hamsters = assay: abortifacient test in mated hamsters (Labhsetwar); assay type: in vivo, hamster; settings: Mesocricetus auratus, sc
Experimental: Furthermore, when the compounds of this invention are tested by the method of A. P. Labhsetwar, Nature 230, 528 (1971) whereby the compound is given subcutaneously on a daily basis to mated hamsters on days 4, 5 and 6 of pregnancy, thereafter the animals being sacrificed on day 7 of pregnancy and the number of abortions counted, the compounds are shown to have abortifacient properties.

gastric secretion = settings: in vivo; cited from earlier work
[4] = basic and acidic conditions; cited from earlier work
[5] = test system: guinea pig tracheal strip; assay: relaxation of carbachol-induced contractions of isolated guinea pig tracheal strips; settings: for RELAXATION of tracheal strip: carbachol-contracted, mean of 12 strips
Text: The relaxation of the guinea pig tracheal strip by trans-7-[2-(3-hydroxy-3-methyl-1-octenyl)-5-oxocyclopentyl]heptanoic acid (Isomer B'). Each value is the mean of the responses of 12 strips.

[6] = test system: histamine-induced bronchoconstriction; assay: histamine-induced bronchoconstriction in the anesthetized guinea pig (Greenberg and Beaulieu); assay type: in vivo
Experimental: (§1) Maximal effect was seen within 3 minutes after 10 μg/kg and returned to the control level within 50 minutes. Hypotension of short duration (1 - 2 minutes) occurred following this mode of administration. […] Maximal effect was seen within 3 minutes after 0.1 μg/kg and returned to the control level within 70 minutes.
Percentage inhibition of histamine-induced bronchoconstriction in the anesthetized guinea pig after intravenous administration of trans-7-[2-(3-hydroxy-3-methyl-1-octenyl)-5-oxocyclopentyl]heptanoic acid (Isomer B'). Each value is the mean of 8 - 12 experiments.
Percentage inhibition of histamine-induced bronchoconstriction in the anesthetized guinea pig after aerosol administration of trans-7-[2-(3-hydroxy-3-methyl-1-oxtenyl)-5-oxocyclopentyl]heptanoic acid (Isomer B'). Each value is the mean of 8 - 12 experiments.

blood pressure = blood pressure after administration in the anesthetized guinea pig; assay type: in vivo; settings: after aerosol administration
Experimental: as §1

horse = assay: synchronization of estrus and regulation of ovulation in the horse; assay type: in vivo; settings: given on second and third day before expected estrus; rectal palpation
Text: It is often desirable to synchronize estrus in domestic animals, for example, horses, cattle, sheep, swine or dogs, in order to be able to perform artificial insemination or mating with a male of the desired genetic quality under optimum conditions. In the past, this has been done by administering to the animals an ovulation-inhibiting agent, withdrawing administration of said agent shortly before the date chosen for mating or artificial insemination, and relying either upon the natural production of LH and FSH to induce ovulation and to produce estrus or by administering gonadotrophins. However, this procedure was not entirely satisfactory because ovulation at a predetermined time occured only in a certain proportion of the animals when gonadotrophins were not used. On the other hand, the high cost of gonadotrophins and side effects encountered in their administration needs this method impractical. It is now possible to obtain substantially complete synchronization of ovulation and of estrus, by treating the animals in a given group with the compound of formula 1 before the predetermined period of time for mating or artificial insemination, so as to obtain ovulation and estrus within that time interval. The delay in the onset of ovulation and estrus following administration of the compound of this invention varies with the species of animal. […]

[7] = 168 h, subcutaneous, days 4, 5 and 6 of pregnancy, sacrificed day 7, read-out: dose giving complete abortion in all animals

CCCCC(C)(C)C(O)/C=C/[C@H]1CCC(=O)[C@@H]1C/C=C\CCCC(=O)O (relative stereo) [trans, cis-7-[2-(3-hydroxy-4,4-dimethyl-1-octenyl)-5-oxocyclopentyl]-5-heptenoicacid]
ED50 [1]: ~1 mg/kg

CCCCC[C@](C)(O)/C=C/[C@@H]1[C@@H](C/C=C\CCCC(=O)O)[C@@H](O)C[C@H]1O [15-Methyl PGF2α]
effect on pregnancy (pregnancy [2]): interrupt pregnancy
effect on pregnancy (pregnancy [3]): interrupt pregnancy

CCCCCC(C)(O)/C=C/[C@H]1[C@H](O)CC(=O)[C@@H]1C/C=C\CCCC(=O)OC (some centres unmarked) [15-methyl PGE2 methyl esters]
effect on pregnancy (pregnancy [2]): interrupt pregnancy
effect on pregnancy (pregnancy [3]): interrupt pregnancy

CCCCCC(C)(O)/C=C/[C@H]1CCC(=O)[C@@H]1C/C=C\CCCC(=O)O (relative stereo) [trans, cis-7-[2-(3-Hydroxy-3-methyl-1-octenyl)-5-oxocyclopentyl]-5-heptenoic Acid]
ED100 (mated hamsters; [7]): 2.5 mg/kg/day

CCCCC[C@@](C)(O)/C=C/[C@H]1[C@H](O)CC(=O)[C@@H]1C/C=C\CCCC(=O)O [15(R)-methyl]
effect on gastric secretion (gastric secretion): inhibit gastric secretion

CCCCC[C@H](O)/C=C/[C@H]1[C@H](O)CC(=O)[C@@H]1C/C=C\CCCC(=O)O [PGE2]
dehydration of the 11-hydroxy group [4]: participates readily in dehydration reactions

CCCCCC(C)(O)/C=C/[C@H]1CCC(=O)[C@@H]1CCCCCCC(=O)O (single isomer, unassigned) [Isomer B', trans-7-[2-(3-hydroxy-3-methyl-1-octenyl)-5-oxocyclopentyl]-heptanoic acid]
RELAXATION of tracheal strip ([5]; 1.0 μg/ml): 0.2 ± 0.2 g
RELAXATION of tracheal strip ([5]; 3.0 μg/ml): 0.39 ± 0.04 g
RELAXATION of tracheal strip ([5]; 10 μg/ml): 0.79 ± 0.1 g
RELAXATION of tracheal strip ([5]; 30 μg/ml): 1.29 ± 0.1 g
relaxation of the tracheal strip, dose relation ([5]; cumulative concentrations): linear dose related relaxation
inhibition at 1e-05 mg/kg ([6]; Cavia porcellus, intravenous, 0.01 μg/kg, mean of 8 - 12 experiments): 14.8 ± 2%
inhibition at 0.0001 mg/kg ([6]; Cavia porcellus, intravenous, 0.1 μg/kg, mean of 8 - 12 experiments): 46.4 ± 5.5%
inhibition at 0.001 mg/kg ([6]; Cavia porcellus, intravenous, 1.0 μg/kg, mean of 8 - 12 experiments): 66 ± 5.4%
inhibition at 0.01 mg/kg ([6]; Cavia porcellus, intravenous, 10.0 μg/kg, mean of 8 - 12 experiments): 81.9 ± 5.2%
inhibition of histamine-induced bronchoconstriction, dose relation ([6]; aerosol): linear dose related inhibition
times more potent than prostaglandin E2 or 11-deoxy-prostaglandin E1 ([6]; aerosol): 78 times
time of maximal effect ([6]; aerosol, after 0.1 μg/kg): ≤ 3 min
time of return to the control level ([6]; aerosol, after 0.1 μg/kg): ≤ 70 min
% INHIBITION of histamine-induced bronchoconstriction ([6]; aerosol, total dose 10^-1 μg, mean of 8 - 12 experiments): 78.1 ± 4.2%
% INHIBITION of histamine-induced bronchoconstriction ([6]; aerosol, total dose 10^-2 μg, mean of 8 - 12 experiments): 66.8 ± 4.7%
% INHIBITION of histamine-induced bronchoconstriction ([6]; aerosol, total dose 10^-3 μg, mean of 8 - 12 experiments): 49.3 ± 5.0%
% INHIBITION of histamine-induced bronchoconstriction ([6]; aerosol, total dose 10^-4 μg, mean of 8 - 12 experiments): 38.6 ± 5.9%
% INHIBITION of histamine-induced bronchoconstriction ([6]; aerosol, total dose 10^-5 μg, mean of 8 - 12 experiments): 20.9 ± 5.1%
inhibition of histamine-induced bronchoconstriction, dose relation ([6]; intravenous): linear dose related inhibitions
times more potent than prostaglandin E2 or 11-deoxy-prostaglandin E1 ([6]; intravenous): 32 times
time of maximal effect ([6]; intravenous, after 10 μg/kg): ≤ 3 min
time of return to the control level ([6]; intravenous, after 10 μg/kg): ≤ 50 min
changes in the blood pressure (blood pressure): no notable changes in the blood pressure

CCCCCC(C)(O)/C=C/[C@H]1CCC(O)[C@@H]1C/C=C\CCCC(=O)O (relative stereo) [trans, cis-7[2-hydroxy-5-(3-hydroxy-3-methyl-1-octenyl)cyclopentyl]-5-heptenoic acid]
ED100 (mated hamsters; [7]): 0.5 mg/kg/day

CCCCCC(C)(O)CCC1CCC(=O)C1CCCCCCC(=O)O (centres unmarked) [2-(3-hydroxy-3-methyl-octyl)-5-oxocyclopentaneheptanoic acid, reference compound]
ED100 (mated hamsters; comparison with saturated 15-methyl analog, above test, read-out: dose below which complete abortion is not caused): ≥ 30 mg/kg/day

CCCCCC(C)(O)/C=C/[C@H]1CC[C@H](O)[C@@H]1C/C=C\CCCC(=O)O (relative stereo) [trans, cis-7-[2α-hydroxy-5-(3-hydroxy-3-methyl-1-octenyl)cyclopentyl]-5-heptenoic acid]
ovulation after estrus (majority of animals) (horse): from the fourth to the sixth day

CCCCC(C)(C)[C@H](O)/C=C/[C@H]1[C@H](O)CC(=O)[C@@H]1C/C=C\CCCC(=O)OC [16,16-dimethyl PGE2 methyl ester]
effect on gastric secretion (gastric secretion): effective in inhibiting gastric acid secretion

CCCCCC(C)(O)/C=C/[C@H]1CCC(=O)[C@@H]1CC/C=C\CCC(=O)O (relative stereo) [trans, cis-7-[2-(3-hydroxy-3-methyl-1-octenyl)-5-oxocyclopentyl]-4-heptenoic acid]
ED100 (mated hamsters; [7]): 1 mg/kg/day

CCCCC[C@](C)(O)/C=C/[C@H]1[C@H](O)CC(=O)[C@@H]1C/C=C\CCCC(=O)O [15(S)-methyl PGE2]
effect on gastric secretion (gastric secretion): inhibit gastric secretion

CCCCCC(C)(O)/C=C/[C@H]1CCC(=O)[C@@H]1CCCCCCC(=O)O (relative stereo) [trans-7-[2-(3-hydroxy-3-methyl-1-octenyl)-5-oxocyclopentyl]-heptanoic acid]
protection against histamine-induced bronchospasm ([6]; anesthetized guinea pig): significant protection
